# Source: patent EP4763837A1, “PHOTOCHROMIC COMPOUND, CURABLE COMPOSITION, OPTICAL ARTICLE, LENS, AND EYEGLASSES” (TOKUYAMA CORPORATION, priority 2023, dated 2025)
# Values joined by “and” are separate entries in the source; they are usually repeats but may differ in a detail not shown here. Equal values may be shown once.
# How the values were obtained:
# Format in all cases: physicochemical
# [1] = Photochromic property of photochromic cured product made by kneading method; conditions: for Residual ratio: A96/A0 x 100 after 96 hours accelerated degradation, xenon weather meter X25; for Color developing density at 23°C: absorbance difference after 240 seconds irradiation at the maximum absorption wavelength of the same line
# Description: (§1) The resulting photochromic laminates were evaluated by the below-mentioned methods. • (1) Photochromic property • [1] Maximum absorption wavelength (λmax): This is the maximum absorption wavelength after color development determined by a spectrophotometer manufactured by Otsuka Electronics Co., Ltd. (instantaneous multichannel photo detector MCPD3000) and was used as an index of a color tone upon color development. • [2] Color developing density at 23°C (A23): This is a difference between an absorbance {ε(240)} after irradiation with light at 23°C for 240 seconds and an absorbance ε(0) when not irradiated with light at the maximum absorption wavelength and was used as an index of a color developing density. The higher this value is, the better a photochromic property is. • [3] Color fading half-life at 23°C [τ1/2 (sec).)]: This is a period of time taken by an absorbance at the maximum absorption wavelength of a sample to decrease to 1/2 of {ε(240)-ε(0)} when irradiation is stopped after irradiation with light at 23°C for 240 seconds, and was used as an index of a color fading rate. The shorter this period of time is, the faster the color fading rate is. • [4] Residual ratio (A96/A0 x 100): The resulting photochromic plastic lens was subjected to accelerated degradation for 96 hours using a xenon weather meter X25 manufactured by Suga Test Instruments Co., Ltd. Color developing densities were then evaluated before and after a test, and a color developing density before the test (A0) and a color developing density after the test (A96) were measured. A ratio (A96/A0) was determined as a residual ratio and was used as an index of color development durability. The higher the residual ratio is, the more durable the color development is.
# First, the photochromic compound obtained in Example 1, an additive, and a polymerizable compound were mixed to obtain a curable composition. The polymerizable compound was a combination of the following polymerizable monomers: • · 1,3-Bis(isocyanatomethyl)cyclohexane: 36.7 parts by mass • · Pentaerythritol tetrakis(3-mercaptopropionate): 39.4 parts by mass • · Polyoxyethylene polyoxypropylene lauryl ether (WONDERSURF 140 manufactured by AOKI OIL INDUSTRIAL Co., Ltd.): 17.4 parts by mass • · 1-Decanethiol: 2.8 parts by mass • · RX-1 prepared by the method described in Patent Document 14: 3.8 parts by mass
# Note that, in the curable composition, the photochromic compound was added in an amount of 0.106 mmol taking a total amount of the polymerizable monomers as 100 g.
# The following additives were used: • · Dimethyltin dichloride: 0.05 parts by mass • · Irganox 245: 0.1 parts by mass • · 2-Ethylhexyl […]: 0.6 parts by mass
# After the thus-prepared curable composition was thoroughly defoamed, it was poured into a glass mold with a gap of 1 mm and polymerized by casting polymerization. […] After the polymerization, the resulting cured product was removed from the glass mold to obtain a photochromic cured product with a thickness of 1 mm. The resulting photochromic cured product was evaluated in the same manner as for Example 23.
# Photochromic cured products were produced using the photochromic compounds shown in Table 4 in the same manner as in Example 50.
# [2] = Photochromic property of photochromic laminate made by coating method; conditions: for Residual ratio: laminate by coating method, A96/A0 x 100 after 96 hours accelerated degradation, xenon weather meter X25
# From the text: First, the photochromic compound obtained in Example 1, a photoinitiator, and a polymerizable compound were mixed to obtain a curable composition.
# The polymerizable compound was a combination of the following radical polymerizable monomers:
# Polyethylene glycol dimethacrylate (average molecular weight: 736): 42 parts by mass • Polyethylene glycol dimethacrylate (average molecular weight: 536): 12 parts by mass • Trimethylolpropane methacrylate: 38 parts by mass γ-Methacryloyloxypropyltrimethoxysilane: 2 parts by mass Glycidyl methacrylate: 1 part by mass.
# Note that, in the curable composition, the photochromic compound was added in an amount of 0.25 mmol taking a total amount of the radical polymerizable monomers as 100 g.
# Phenylbis(2,4,6-trimethylbenzoyl)phosphine oxide (photoinitiator: Omnirad 819): 0.3 parts by mass Ethylene bis(oxyethylene) bis[3-(5-tert-butyl-4-hydroxy-m-tolyl) propionate] (stabilizer, Irganox 245): 1 part by mass Bis(1,2,2,6,6-pentamethyl-4-piperidyl)sebacate: 3 parts by mass Leveling agent (L-7001) manufactured by DuPont Toray Specialty Materials K.K.: 0.1 parts by mass.
# Using this curable composition, a photochromic laminate was obtained by a lamination method including polymerization as follows.
# First, a thiourethane plastic lens with a center thickness of 2 mm and a refractive index of 1.60 was prepared as an optical substrate. Note that, the thiourethane plastic lens had been alkaline-etched in a 10% sodium hydroxide aqueous solution at 50°C for 5 minutes in advance, and then thoroughly washed with distilled water.
# A spin coater (1H-DX2, manufactured by MIKASA CO., LTD) was used to coat a surface of the above-mentioned plastic lens with a moisture-curing primer (product name: TR-SC-P, manufactured by Tokuyama Corporation) at a rotation speed of 70 rpm for 15 seconds, followed by 1000 rpm for 10 seconds. Then, about 2 g of the photochromic curable composition obtained above was spin-coated at a rotation speed of 60 rpm for 40 seconds, followed by 600 rpm for 10 to 20 seconds so as to achieve a photochromic coating layer with a thickness of 40 µm.
# The lens of which surface had been coated with the photochromic curable composition (photochromic coating layer) was irradiated with light for 90 seconds in a nitrogen gas atmosphere using a metal halide lamp with an output of 200 mW/cm^2 to cure the coating. The resultant was then further heated at 110°C for 1 hour to produce a photochromic laminate with a photochromic layer.
# Photochromic laminates were produced using the photochromic compounds obtained in Examples 2 to 20 in the same manner as in Example 21.
# Photochromic laminates were obtained using photochromic compounds represented by Formulae (A) to (D) below in the same manner as in Example 21. [drawing 89] [drawing 90] [drawing 91] [drawing 92] [drawing 93]
# as §1, with “Residual ratio (A96/A0 x 100): The resulting photochromic plastic lens was subjected to accelerated degradation for 96 hours using a xenon weather meter X25 manufactured by Suga Test Instruments Co., Ltd. Color developing densities were then evaluated before and after a test, and a color developing density before the test (A0) and a color developing density after the test (A96) were measured. A ratio (A96/A0) was determined as a residual ratio and was used as an index of color development durability. The higher the residual ratio is, the more durable the color development is.” left out
# [3] = Photochromic property of binder sheet (photochromic layer made by binder method); conditions: for Residual ratio: A96/A0 x 100 after 96 hours accelerated degradation, xenon weather meter X25; for Color developing density at 23°C: absorbance difference after 240 seconds irradiation at the maximum absorption wavelength of the same line
# Description: as §1
# A binder sheet was produced as follows. The binder sheet was made by laminating a first optical sheet, a first adhesive layer, a photochromic layer, a second adhesive layer, and a second optical sheet in this order. A polycarbonate sheet with a thickness of 400 µm was used as the first optical sheet and the second optical sheet.
# A 2 L four-necked flask equipped with a stirring blade, a condense tube, a thermometer, and a nitrogen gas inlet tube was charged with 315 parts by mass of polycarbonate diol with a number average molecular weight of 1000, 100 parts by mass of isophorone diisocyanate, and 72 parts by mass of toluene and reacted under a nitrogen atmosphere at 100°C for 7 hours. Thus, a urethane prepolymer with a terminal isocyanate group was synthesized. After the reaction of the above-mentioned urethane prepolymer was completed, the resulting reaction liquid was cooled to about 0°C and dissolved in 205 parts by mass of tertiary-butyl alcohol and 382 parts by mass of diethyl ketone, and then a temperature of the resulting liquid was kept at 0°C. Next, a mixed solution of 21.3 parts by mass of bis-(4-aminocyclohexyl)methane serving as a chain extender and 20 parts by mass of diethyl ketone was added dropwise thereto within 30 minutes and reacted at 0°C for 1 hour. Then, 8.1 parts by mass of 1,2,2,6,6-pentamethyl-4-aminopiperidine was added dropwise thereto and reacted at 0°C for 1 hour to obtain a solution of a terminal non-reactive urethane urea resin in diethylketone.
# One hundred parts by mass of the resulting solution of a terminal non-reactive urethane urea resin, 6.3 parts by mass of Example 1 (a photochromic compound represented by Formula (1-7), an isomer mixture of 4,4'-methylenebis(cyclohexylisocyanate) (polyisocyanate compound)), 0.4 parts by mass of ethylenebis(oxyethylene) bis[3-(5-tert-butyl-4-hydroxy-m-tolyl) propionate] serving as an antioxidant, and 0.06 parts by mass of L-7001 manufactured by DuPont Toray Specialty Materials K.K. serving as a surfactant were added and stirred and mixed at room temperature to obtain a composition for forming a photochromic layer. […]
# [4] = Solubility of photochromic compound in polymerizable compounds; design: key: 1: No haze is seen when checked under transmission of light, and the sample is completely dissolved.; 2: A very thin haze is seen to the extent that it can be seen under transmission of light.; 3: A thin haze that can be seen under transmission of light is seen.; 4: A haze can be seen even without transmission of light; conditions: 35 µmol/g in radical polymerizable compound composition of Example 21, 65 to 70°C; for Dissolution for 15 min / Dissolution for 30 min / Dissolution for 45 min: stirring and ultrasonic irradiation; for Dissolution for 1 hour: head reads 60 min in Tables 8 to 14
# Description: The photochromic compounds according to Examples and Comparative examples shown in Table 5 were evaluated for solubility in polymerizable compounds.
# Specifically, a sample was prepared by adding each of the photochromic compounds to the composition, which consisted of a radical polymerizable compound, among the curable compositions used in Example 21.
# Note that, this test was performed using "YOKAI-KUN USS-1" manufactured by NIHONSEIKI KAISHA LTD. under the following conditions: • Dissolution temperature: 65 to 70°C • Stirring condition: Stirring dial of 5. Ultrasonic irradiation condition: Irradiation interval of 3 sec.
# Dissolution was checked every 15 minutes up to 1 hour later, the sample was visually checked by transmitting light through the sample, and a degree of dissolution was evaluated according to the following four evaluation criteria.
# • 1: No haze is seen when checked under transmission of light, and the sample is completely dissolved. • 2: A very thin haze is seen to the extent that it can be seen under transmission of light. • 3: A thin haze that can be seen under transmission of light is seen. • 4: A haze can be seen even without transmission of light.
# A shorter time required for the evaluation result to be 1 means higher solubility.
SMILES,Residual ratio [1],Color developing density at 23°C [1],Color fading half-life at 23°C [2] [min],Residual ratio [2],Residual ratio [3],Color developing density at 23°C [3],Dissolution for 15 min [4],Dissolution for 30 min [4],Dissolution for 45 min [4],Dissolution for 1 hour [4]
CCCCCC1(CCC)c2cc(N(c3ccccc3)c3ccccc3)ccc2-c2c1c1c(c3cc(OC)ccc23)OC(c2ccc(OC)cc2)(c2ccc(OC)cc2)C=C1 (centres unmarked) [Formula (8-3)],72% and 71%,1.07 - and 0.96 -,1.67,,,,,,,
CCCC1(C)c2cc(C)ccc2-c2c1c1c(c3cc(C)ccc23)OC(c2ccc(C)cc2)(c2ccc(OC)cc2)C=C1 (centres unmarked) [Formula (1-5)],71%,0.66 - and 1.10 -,2.28,62%,82%,0.65 - and 1.11 -,,,,
CCCCC1(C)c2cc(-c3ccc(C)cc3)ccc2-c2c1c1c(c3cc(OC)c(OC)cc23)OC(c2ccc(OC)cc2)(c2ccc(OC)cc2)C=C1 (centres unmarked) [Formula (5-6)],,,,,80% and 81%,1.33 - and 0.84 -,,,,
CCCCCCC1(CC)c2ccccc2-c2c1c1c(c3cc(OC)ccc23)OC(c2ccc(C)cc2)(c2ccc(N(C)c3ccccc3)cc2)C=C1 (centres unmarked) [Formula (7-4)],67% and 66%,0.63 - and 1.13 -,,60%,,,,,,

# Now from value to molecule:
Residual ratio [1],Color developing density at 23°C [1],Color fading half-life at 23°C [2] [min],Residual ratio [2],Residual ratio [3],Color developing density at 23°C [3],Dissolution for 15 min [4],Dissolution for 30 min [4],Dissolution for 45 min [4],Dissolution for 1 hour [4],SMILES
,,,,90% and 91%,0.61 - and 0.73 -,3,2,1,1,CCCCCC1(CC)c2cc(OC(F)(F)F)ccc2-c2c1c1c(c3cc(OC)ccc23)OC(c2ccc(OC)cc2)(c2ccc(OC)cc2)C=C1 (centres unmarked) [Formula (15-1)]
72% and 71%,0.75 - and 1.05 -,,63%,82% and 83%,0.74 - and 1.05 -,,,,,CCC1(C)c2ccccc2-c2c1c1c(c3cc(OC)c(-c4ccc(OC)cc4OC)cc23)OC(c2ccc(OC)cc2)(c2ccc(N(C)c3ccccc3)cc2)C=C1 (centres unmarked) [Formula (13-2)]
58% and 59%,,,,68% and 70%,1.68 - and 0.84 -,,,,,CCCCC1(CC)c2cc(-c3ccc(C(C)(C)C)cc3)ccc2-c2c1c1c(c3cc(OC)c(N4CCCCC4)cc23)OC(c2ccc(OC)cc2)(c2ccc(OC)cc2)C=C1 (centres unmarked) [Formula (17-2)]
70% and 69%,1.10 - and 1.07 -,1.42,,,,3,2,1,1,CCCCC1(CCC)c2cc(C)ccc2-c2c1c1c(c3cc(OC)c(-c4ccc(N5CCOCC5)cc4)cc23)OC(c2ccc(OC)cc2)(c2ccc(N3CCOCC3)cc2)C=C1 (centres unmarked) [Formula (10-1)]
,,,69% 69%,92% and 91%,1.21 - and 1.03 -,,,,,CCCCCCC1(CC)c2cc(-c3ccc(OC(C)C)cc3)ccc2-c2c1c1c(c3cc(OC)c(-c4ccc(OC(C)C)cc4)cc23)OC(c2ccc(OC)cc2)(c2ccc(OCCC)cc2)C=C1 (centres unmarked) [Formula (11-1)]
